Legend:
[1] = tested on: brain endothelial cells (BECs); assay: Mitochondrial superoxide (MitoSox) in TNF-α stimulated brain endothelial cells; format: cell-based, mouse; conditions: BECs stimulated by TNF-a (10 ng/ml) for 4 hours, then treated
Experimental: Next tested was the potential of reparative effects of two non-biologics. One is a triblock biocompatible polymer, known as poloxamers (P188), that was approved by FDA for numerous applications. […] The other compound is N-acetylcysteine (NAC), which is also an FDA-approved antioxidant that is associated with health benefits. […] Using a fluorophore (MitoSox) that preferentially binds to superoxide, the extent of oxidative stress in response to TNF-a were recorded and quantified. Oxidative stress is an important determinant of endothelial injury, which influences a number of cellular responses by activating several intracellular signaling cascades in endothelial cells, leading to the progression of vascular diseases. […] TNF-a induced a significant increase in oxidative stress and, if left untreated, the superoxide level persisted (FIG. 3B). […] This sequence of events may be engineered to accommodate short- and long-term beneficial responses. […]
Measurement of Mitochondrial Reactive Oxygen Species (ROS). Superoxide was measured using a MitoSoX™ Red mitochondrial superoxide indicator, according to the manufacturer's instructions. […] After washing three times with PBS, images were taken with a fluorescent microscope and fluorescence intensities were calculated using Nikon ND2 software.

[2] = In vitro drug release from PLGA NPs; format: physicochemical
Experimental: In vitro Drug Release. For the release studies, 1 mg each from all prepared NPs were dispersed in 1 ml of release medium (pH 7.4) each to form a suspension. Each suspension was in three replicates in 1.5 ml centrifuge tubes and incubated at 37° C. The release buffers were collected after centrifugation at 15,000 rpm for 30 min. The release buffers were replaced with fresh buffer at different periods and subjected to analysis using HPLC. The cumulative release of the model drug from each loaded NPs was plotted against time.

[3] = Drug encapsulation (loading) efficiency of PLGA NPs; format: physicochemical; conditions: in PLGA NPs
Experimental: Drug Encapsulation Efficiency. To find the amount of P188 and NAC within the NPs, P188 was fluorescently modified (TAMRA-P188) and loaded into the NPs. Fluorescence intensity of TAMRA-P188 in the supernatant was quantified over time using a plate reader. NAC was measured with high-performance liquid chromatography (HPLC). The results were converted into concentrations, and the loading efficiency for P188 and NAC were 85% and 28%, respectively, and calculated using the following equation.

MMP-9 = MMP-9 enzyme activity assay (EnzChek) in cells exposed to microcavitation; format: cell-based, mouse; conditions: microcavitation (5 blasts), pretreatment 2 h: doxycycline 20 mM, phenanthroline 0.5 mM
Experimental: (§1) MMPs activities assay, Fold change, and Permeability measurement: EnzChek MMP-2 & 9 Assay Kit were used for MMP-2 & 9 activity assays. Cells were cultured in endothelial cell complete media and divided into the following groups: control (no treatment), exposed (5 blasts), doxycycline (20 mM)+exposed (5 blasts), doxycycline (20 mM), and phenanthroline (0.5 mM, positive control). Before initiating experiments, cells were washed with PBS, and no serum media was applied. Dishes in the treatment groups were pretreated with doxycycline or phenanthroline for 2 h at 37° C. Cells were exposed to microcavitation and incubated at 37° C. for 1 h. All groups were homogenized with lysis buffer containing 0.1% Triton-X 100, and protein was estimated with Pierce BCA Protein Assay Kit. Equal amounts of protein from each sample were aliquoted in lysis buffer. Samples were then analyzed using a plate reader at excitation 495 nm and 515 nm to quantitate MMP-2 & 9 activities. Primary brain endothelial cells were grown under the conditions described above. At the end of all experimental conditions, RNA from the cells was extracted and used for PCR analysis of the MMP-2 & 9 gene expressions. Finally, the permeability of the brain endothelium model exposed to doxycycline, P188, or in combination of them both was measured.

MMP-2 = MMP-2 enzyme activity assay (EnzChek) in cells exposed to microcavitation; format: cell-based, mouse; conditions: microcavitation (5 blasts), pretreatment 2 h: doxycycline 20 mM, phenanthroline 0.5 mM
Experimental: as §1

SMILES | superoxide level (oxidative stress) [1] | time within which most of the release was achieved [2] | release ([2]; in 7 days) | time required to reach a half of the maximum release ([2]; pH 7.4, 37° C., linear regression) | loading efficiency [3] | MMP-9 enzymatic activity (MMP-9) | MMP-2 enzymatic activity (MMP-2)
CC(=O)N[C@@H](CS)C(=O)O [NAC, N-acetylcysteine] | noticeable attenuation of superoxide | ≤ 24 h | ~100% | ~7.7 h | 28% | – | –
c1cnc2c(c1)ccc1cccnc12 [phenanthroline] | – | – | – | – | – | inhibited | inhibited
